Patent US8580918B2, “Peptidic GLP-2 agonists” (Ferring B.V., priority 2009, dated 2013)
Where a SMILES comes first, the peptide text is derived from it. [ ]: non-standard residue; d: D form. The star is where a group is joined. X1 = NC(=O)CCOCCOCCOCCOCCOCCOCCNC(=O)COCC(=O)NCCCOCCOCCOCCCN*; X2 = NC(=O)COCC(=O)NCCCOCCOCCOCCCN*; Nle = CCCC[C@H](N)C(=O)O; NHBn = c1ccc(CN*)cc1; NHiBu = CC(C)CN*

Assay: Pharmacokinetics in rats after intravenous bolus injection (systemic clearance)
Format: in vivo
Conditions: rat, plasma, 0.2 mg FB/kg, adult male Sprague-Dawley rats, i.v. bolus, dose 0.20 mg FB/kg, read-out: CL (ml/kg/min) Average
Summary of the method: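 Systemic clearance from noncompartmental analysis as dose per kg over trapezoidal AUC extrapolated to infinity, mean and SD across animals. Plasma (K2EDTA) levels by LC/MS/MS after single IV jugular-vein bolus, 0.1-1.0 mg/kg, in 3-4 cannulated male Sprague-Dawley rats.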

SMILES	clearance [mL/kg/min]
CCCC[C@H](NC(=O)[C@H](CCC(=O)O)NC(=O)[C@H](CC(=O)O)NC(=O)[C@H](CO)NC(=O)[C@H](Cc1ccccc1)NC(=O)[C@H](CO)NC(=O)CNC(=O)[C@H](CC(=O)O)NC(=O)CNC(=O)[C@@H](N)Cc1c[nH]cn1)C(=O)N[C@H](Cc1ccccc1)C(=O)N[C@H](C(=O)N[C@H](C(=O)N[C@@H](CC(C)C)C(=O)N[C@@H](CC(=O)O)C(=O)N[C@@H](CC(C)C)C(=O)N[C@@H](CC(C)C)C(=O)N[C@@H](C)C(=O)N[C@@H](C)C(=O)N[C@@H](CCCNC(=N)N)C(=O)N[C@@H](CC(=O)O)C(=O)N[C@@H](Cc1ccccc1)C(=O)N[C@H](C(=O)N[C@@H](CC(N)=O)C(=O)N[C@@H](Cc1c[nH]c2ccccc12)C(=O)N[C@@H](CC(C)C)C(=O)N[C@H](C(=O)N[C@@H](CCC(N)=O)C(=O)N[C@H](C(=O)N[C@@H](CCCCN)C(=O)N[C@H](C(=O)N[C@H](C(=O)N[C@@H](CC(=O)O)C(=O)NCC(C)C)[C@@H](C)O)[C@@H](C)CC)[C@@H](C)O)[C@@H](C)CC)[C@@H](C)CC)[C@@H](C)CC)[C@@H](C)O [Compound 57, [Gly2,Nle10,D-Phe11,Leu16] hGLP-2(1-33)-NH-isobutyl] (H-HGDGSFSDE[Nle][dF]TILDLLAARDFINWLIQTKITD-NHiBu)	0.17
CCCC[C@H](NC(=O)[C@H](CCC(=O)O)NC(=O)[C@H](CC(=O)O)NC(=O)[C@H](CO)NC(=O)[C@H](Cc1ccccc1)NC(=O)[C@H](CO)NC(=O)CNC(=O)[C@H](CC(=O)O)NC(=O)CNC(=O)[C@@H](N)Cc1c[nH]cn1)C(=O)N[C@H](Cc1ccccc1)C(=O)N[C@H](C(=O)N[C@H](C(=O)N[C@@H](CC(C)C)C(=O)N[C@@H](CC(=O)O)C(=O)N[C@@H](CC(C)C)C(=O)N[C@@H](CC(C)C)C(=O)N[C@@H](C)C(=O)N[C@@H](C)C(=O)N[C@@H](CCCNC(=N)N)C(=O)N[C@@H](CC(=O)O)C(=O)N[C@@H](Cc1ccccc1)C(=O)N[C@H](C(=O)N[C@@H](CC(N)=O)C(=O)N[C@@H](Cc1c[nH]c2ccccc12)C(=O)N[C@@H](CC(C)C)C(=O)N[C@H](C(=O)N[C@@H](CCC(N)=O)C(=O)N[C@H](C(=O)N[C@@H](CCCCN)C(=O)N[C@H](C(=O)N[C@H](C(=O)N[C@@H](CC(=O)O)C(=O)NCc1ccccc1)[C@@H](C)O)[C@@H](C)CC)[C@@H](C)O)[C@@H](C)CC)[C@@H](C)CC)[C@@H](C)CC)[C@@H](C)O [Compound 58, [Gly2,Nle10,D-Phe11,Leu16] hGLP-2(1-33)-NH-Benzyl] (H-HGDGSFSDE[Nle][dF]TILDLLAARDFINWLIQTKITD-NHBn)	0.1
CCCC[C@H](NC(=O)[C@H](CCC(=O)O)NC(=O)[C@H](CC(=O)O)NC(=O)[C@H](CO)NC(=O)[C@H](Cc1ccccc1)NC(=O)[C@H](CO)NC(=O)CNC(=O)[C@H](CC(=O)O)NC(=O)CNC(=O)[C@@H](N)Cc1cnc[nH]1)C(=O)N[C@H](Cc1ccccc1)C(=O)N[C@H](C(=O)N[C@H](C(=O)N[C@@H](CC(C)C)C(=O)N[C@@H](CC(=O)O)C(=O)N[C@@H](CC(C)C)C(=O)N[C@@H](CC(C)C)C(=O)N[C@@H](C)C(=O)N[C@@H](C)C(=O)N[C@@H](CCCNC(=N)N)C(=O)N[C@@H](CC(=O)O)C(=O)N[C@@H](Cc1ccccc1)C(=O)N[C@H](C(=O)N[C@@H](CC(N)=O)C(=O)N[C@@H](Cc1c[nH]c2ccccc12)C(=O)N[C@@H](CC(C)C)C(=O)N[C@H](C(=O)N[C@@H](CCC(N)=O)C(=O)N[C@H](C(=O)N[C@@H](CCCCN)C(=O)N[C@H](C(=O)N[C@H](C(=O)N[C@@H](CC(=O)O)C(=O)O)[C@@H](C)O)[C@@H](C)CC)[C@@H](C)O)[C@@H](C)CC)[C@@H](C)CC)[C@@H](C)CC)[C@@H](C)O [Compound 59, [Gly2,Nle10,D-Phe11,Leu16] hGLP-2(1-33)-OH] (H-HGDGSFSDE[Nle][dF]TILDLLAARDFINWLIQTKITD-OH)	0.22

Next, values leading:

clearance [mL/kg/min]	SMILES
0.29	CCCC[C@H](NC(=O)[C@H](CCC(=O)O)NC(=O)[C@H](CC(=O)O)NC(=O)[C@H](CO)NC(=O)[C@H](Cc1ccccc1)NC(=O)[C@H](CO)NC(=O)CNC(=O)[C@H](CC(=O)O)NC(=O)CNC(=O)[C@@H](N)Cc1c[nH]cn1)C(=O)N[C@H](Cc1ccccc1)C(=O)N[C@H](C(=O)N[C@H](C(=O)N[C@@H](CC(C)C)C(=O)N[C@@H](CC(=O)O)C(=O)N[C@@H](Cc1ccccc1)C(=O)N[C@@H](CC(C)C)C(=O)N[C@@H](C)C(=O)N[C@@H](C)C(=O)N[C@@H](CCCNC(=N)N)C(=O)N[C@@H](CC(=O)O)C(=O)N[C@@H](Cc1ccccc1)C(=O)N[C@H](C(=O)N[C@@H](CC(N)=O)C(=O)N[C@@H](Cc1c[nH]c2ccccc12)C(=O)N[C@@H](CC(C)C)C(=O)N[C@H](C(=O)N[C@@H](CCC(N)=O)C(=O)N[C@H](C(=O)N[C@@H](CCCCN)C(=O)N[C@H](C(=O)N[C@H](C(=O)N[C@@H](CC(=O)O)C(=O)NCCCOCCOCCOCCCNC(=O)COCC(N)=O)[C@@H](C)O)[C@@H](C)CC)[C@@H](C)O)[C@@H](C)CC)[C@@H](C)CC)[C@@H](C)CC)[C@@H](C)O [Compound 60, [Gly2,Nle10,D-Phe11,Phe16] hGLP-2(1-33)-NH—CH2—((CH2)2O)3—(CH2)3—NH—C(O)—CH2—O—CH2—C(O)—NH2] (H-HGDGSFSDE[Nle][dF]TILDFLAARDFINWLIQTKITD-X2)
0.16	CCCC[C@H](NC(=O)[C@H](CCC(=O)O)NC(=O)[C@H](CC(=O)O)NC(=O)[C@H](CO)NC(=O)[C@H](Cc1ccccc1)NC(=O)[C@H](CO)NC(=O)CNC(=O)[C@H](CC(=O)O)NC(=O)CNC(=O)[C@@H](N)Cc1c[nH]cn1)C(=O)N[C@H](Cc1ccccc1)C(=O)N[C@H](C(=O)N[C@H](C(=O)N[C@@H](CC(C)C)C(=O)N[C@@H](CC(=O)O)C(=O)N[C@@H](Cc1ccccc1)C(=O)N[C@@H](CC(C)C)C(=O)N[C@@H](C)C(=O)N[C@@H](C)C(=O)N[C@@H](CCCNC(=N)N)C(=O)N[C@@H](CC(=O)O)C(=O)N[C@@H](Cc1ccccc1)C(=O)N[C@H](C(=O)N[C@@H](CC(N)=O)C(=O)N[C@@H](Cc1c[nH]c2ccccc12)C(=O)N[C@@H](CC(C)C)C(=O)N[C@H](C(=O)N[C@@H](CCC(N)=O)C(=O)N[C@H](C(=O)N[C@@H](CCCCN)C(=O)N[C@H](C(=O)N[C@H](C(=O)N[C@@H](CC(=O)O)C(=O)NCCCOCCOCCOCCCNC(=O)COCC(=O)NCCOCCOCCOCCOCCOCCOCCC(N)=O)[C@@H](C)O)[C@@H](C)CC)[C@@H](C)O)[C@@H](C)CC)[C@@H](C)CC)[C@@H](C)CC)[C@@H](C)O [Compound 61, [Gly2,Nle10,D-Phe11,Phe16] hGLP-2(1-33)-NH—CH2—((CH2)2O)3—(CH2)3—NH—C(O)—CH2—O—CH2—C(O)—NH—((CH2)2O)6—(CH2)2—C(O)—NH2] (H-HGDGSFSDE[Nle][dF]TILDFLAARDFINWLIQTKITD-X1)
